Starred links: 1 amine or outer side, 2 acyl side, 3 side chain; linkers in the order of their positions; H or OH if unused. Non-standard residues stand in square brackets, D forms with d. Residues, ends and D or L forms follow the SMILES beside them. No end group written: not given here. Tyr(Me) = O-methyl-Tyr (CH3O-Y), COc1ccc(C[C@H](N[*:1])C(=O)[*:2])cc1; Nle = CCCC[C@H](N)C(=O)O
Key:
PACAP-R3 [1] = target: T1, PACAP-R3 (Homo sapiens, UniProt P41587); test: Cyclic AMP SPA on CHO cells expressing PACAP R3; format: cell-based; design: expressed in transfected cells; host or cells: CHO cells; details: cAMP SPA, CHO cells transfected with PACAP-R3; EC50 = concentration at which 50% of maximum PACAP27 activity is achieved; NA = no detectable activities
T1 sequence (P41587 24-438): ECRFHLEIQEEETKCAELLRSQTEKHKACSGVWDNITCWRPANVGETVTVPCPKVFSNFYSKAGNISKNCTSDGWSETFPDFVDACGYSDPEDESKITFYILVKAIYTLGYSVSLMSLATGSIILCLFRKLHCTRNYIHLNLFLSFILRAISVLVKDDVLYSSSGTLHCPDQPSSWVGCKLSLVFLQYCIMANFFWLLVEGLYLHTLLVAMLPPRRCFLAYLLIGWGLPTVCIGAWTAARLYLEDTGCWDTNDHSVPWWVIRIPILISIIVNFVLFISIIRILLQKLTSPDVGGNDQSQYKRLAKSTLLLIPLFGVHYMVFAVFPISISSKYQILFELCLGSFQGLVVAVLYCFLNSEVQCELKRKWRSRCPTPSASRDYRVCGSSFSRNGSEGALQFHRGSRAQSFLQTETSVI
Protocol: (§1) CHO cells expressing the PACAP R3 were plated in 96-well plates (Costar) at 8 x 10^4 cell/well and grown at 37C for 24 hours in a MEM + nucleosides + glutamine (Giobco BRL), 10% FBS, 100 µg/ml Pen/Strep, 0.3 mg/ml glutamine, 1 mM HEPES, 0.5 mg/ml Geneticin (Gibco BRL). The media was removed and the plates were washed with PBS. The cells were incubated with a peptide, in Hepes-PBS-BSA with 0.4mg/mlSoybean Trypsin inhibitor, 0.5 mg/ml Bacitracin, 100uM IBMX, for 15 min at 37 C. Cyclic AMP in the ceii extracts was quantitated using the cAMP SPA direct screening assay system (Amersham Pharmacia Biotech Inc, Piscataway, NJ,). The peptides shown in Table 3 were assayed for cAMP activity.
(§2) EC50 is defined as the concentration of the polypeptide at which 50% of maximum PACAP27 activity is achieved. "NA" denotes no detectable activities. "R3 Selectivity" is derived from the ratio of EC50 at R2 versus EC50 at R3. […]

PACAP-R2 = target: T2, PACAP-R2 (Homo sapiens, UniProt P32241); test: Cyclic AMP SPA on CHO cells transfected with PACAP-R2; format: cell-based; details: cAMP SPA, EC50 = concentration at which 50% of maximum PACAP27 activity is achieved, NA = no detectable activities
T2 construct: expressed in transfected cells; host or cells: CHO cells
T2 sequence (P32241 31-457): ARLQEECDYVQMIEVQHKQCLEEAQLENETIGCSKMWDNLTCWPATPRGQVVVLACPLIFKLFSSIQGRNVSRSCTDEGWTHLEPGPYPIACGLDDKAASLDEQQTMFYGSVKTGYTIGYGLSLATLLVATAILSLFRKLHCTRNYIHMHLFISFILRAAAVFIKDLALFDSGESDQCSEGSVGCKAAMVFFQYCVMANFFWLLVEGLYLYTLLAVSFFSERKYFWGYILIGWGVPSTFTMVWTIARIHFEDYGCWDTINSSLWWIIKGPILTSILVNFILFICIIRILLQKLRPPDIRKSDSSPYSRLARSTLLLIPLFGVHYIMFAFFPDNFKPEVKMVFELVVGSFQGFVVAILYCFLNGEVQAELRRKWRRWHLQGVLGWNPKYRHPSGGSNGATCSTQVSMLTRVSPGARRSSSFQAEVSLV
Protocol: as §1, §2

[2] = Peptide-induced elevation of plasma insulin after IVGTT; format: in vivo; details: one minute after IVGTT (0.4g/kg glucose), 1 nmole/kg peptide i.v., Wistar rats
Protocol: Wistar rats are fasted overnight (17 hrs) and then anesthetized with pentobarbital (0.1 ml/100 g BW). Glucose (0.4 g/kg dissolved in 1% human albumin-saline) +/- peptide (dissolved in 1% human albumin-saline) is injected intravenously into the tail vein. The rats are eye-bled 1 minute after the injection and 50-100ul of the plasma are assayed for insulin level with the Linco RIA kit (Linco Research, Inc., St. Charles, MO).
(§3) In accordance with the protocol of example 2 above, overnight fasted Wistar rats were anesthetized with pentobarital; i.v. injected with glucose ± peptide and eye bled after 1 minute. N=12 rats/group. […] The peptide or vehicle was given i.v. followed by a glucose load given i.p. in accordance with example 3. The plasma glucose was followed over the time period indicated.
Plasma insulin: Data are expressed as % of plasma insulin one minute after IVGTT (0.4g/kg glucose) with either saline, 0.1nmol/kg P51, P55, P60, P66 or 1 nmole/kg of the other peptides including peptides which are not part of the present invention in Wistar rats. Blood was drawn from the eye and insulin was measured with the rat insulin RIA kit (Linco Research, Inc, St. Charles, MO).

PACAP-R3 [3] = target: T1, PACAP-R3; details: literature; cited from earlier work
rat islets = test: Insulin release from isolated rat islets; format: cell-based, Sprague-Dawley rats; details: peptide 10nM for 2hrs, 8mM glucose; % of [insulin] in 8mM glucose alone
Protocol: Sprague Dawley rats (275-320 g) were used as the source of donor islets. Briefly, the pancreas was filled with 10 ml of cold reconstituted Liberase RI (Boehringer Manheim), harvested and incubated with additional 5 ml enzyme solution in water bath for 30 minutes. Tissue suspension was washed twice with cold 10% FBS/Hanks buffer (Gibco), resuspended in 8 ml 25% ficoll (Sigma) and then layered with 5 ml each of 23%, 20% and 11 % ficoll. The islets in the 20% layer after centrifugation were removed, washed twice with cold 10% FBS/Hank buffer and resuspended in 10% FBS/RPMI 1640 media (Sigma).
Islet insulin release: Rat islets were isolated from Sprague-Dawley rats as described in example 1 and treated with either vehicle or specified peptide (10nM) for 2hrs. Insulin concentration in the medium was measured with the Linco rat insulin RIA kit. Glucose concentration in the medium was 8mM. The data are expressed as % of [insulin] in 8mM glucose alone. No polypeptide-induced Increases in insulin concentration were observed al 3 mM glucose; thus, the insulin releasing activity of these polypeptides are glucose-dependent. It should be noted that the following Table includes data for polypeptides which are not part of the present invention.

[4] = Intraperitoneal glucose tolerance test (IPGTT), plasma glucose; format: in vivo, Wistar rats
Protocol: Wistar rats are fasted overnight and then anesthetized with pentobarbital. The rats were eye-bled (zero time) and the peptide ( in 1% human albumin) was injected into the tail vein. Five minutes later, 1 g/kg of glucose (in saline) was injected intraperitoneally, and the rats were eye-bled after 15, 30 and 60 minutes. Plasma glucose levels were determined using the Technicon Axon autoanalyzer, Bayer Diagnosics division of Bayer Corporation, Tarrytown NY, operated using Method No. SM4-2143F90 "Glucose".
as §3
Wistar rats were fasted overnight and then anesthetized with Pentobarbital. The rats were eye-bled (zero time) and the peptide (in 1 % human albumin) was injected subcutaneously. Five minutes later, 1 g/kg of glucose (in saline) was injected intraperitoneally, and the rats were eye-bled after 30 minutes.
Plasma glucose: Data are expressed as % of vehicle of plasma glucose area under the curve after IPGTT (1 g/kg glucose) after treatment with 1 nmol/kg dose of the peptide. […] The present Inventors have shown for the first time that this is because the effects of R2 and R3 on glucose tend to cancel each other out. […] Therefore, R3-selectlvlty appears to be a desirable attribute for medicaments which are to be employed in achieving blood glucose reduction, for treatment of type 2 diabetes.

[5] = target: T3, human PACAP/VIP R2 (PACAP R3) receptor (human, UniProt P41587 24-438); test: cell-based or functional assay
T3 sequence (looked up): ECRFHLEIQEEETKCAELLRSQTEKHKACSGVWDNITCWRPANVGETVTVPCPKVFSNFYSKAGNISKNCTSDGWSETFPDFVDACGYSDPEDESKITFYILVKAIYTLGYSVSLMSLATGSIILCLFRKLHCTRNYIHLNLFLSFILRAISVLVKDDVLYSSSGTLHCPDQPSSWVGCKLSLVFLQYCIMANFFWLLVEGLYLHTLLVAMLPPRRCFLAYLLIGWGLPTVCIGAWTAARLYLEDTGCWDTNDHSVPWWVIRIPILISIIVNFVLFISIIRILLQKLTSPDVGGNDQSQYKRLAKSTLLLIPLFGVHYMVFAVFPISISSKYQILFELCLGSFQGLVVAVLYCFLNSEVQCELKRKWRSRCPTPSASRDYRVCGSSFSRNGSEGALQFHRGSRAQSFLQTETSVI

## CC[C@H](C)[C@H](NC(=O)CNC(=O)[C@H](CC(=O)O)NC(=O)[C@H](CO)NC(=O)[C@@H](N)Cc1c[nH]cn1)C(=O)N[C@@H](Cc1ccccc1)C(=O)N[C@H](C(=O)N[C@@H](CC(=O)O)C(=O)N[C@@H](CO)C(=O)N[C@@H](CCCCN)C(=O)N[C@@H](CO)C(=O)N[C@@H](CCCNC(=N)N)C(=O)N[C@@H](Cc1ccc(O)cc1)C(=O)N[C@@H](CCCNC(=N)N)C(=O)N[C@@H](CCCCN)C(=O)N[C@@H](CCC(N)=O)C(=O)N[C@@H](CCSC)C(=O)N[C@@H](C)C(=O)N[C@H](C(=O)N[C@@H](CCCCN)C(=O)N[C@@H](CCCCN)C(=O)N[C@@H](Cc1ccc(O)cc1)C(=O)N[C@@H](CC(C)C)C(=O)N[C@@H](C)C(=O)N[C@@H](C)C(=O)N[C@H](C(=O)N[C@@H](CC(C)C)C(N)=O)C(C)C)C(C)C)[C@@H](C)O [PAC10]
PACAP-R3 [1]
  EC50: 27 nM
PACAP-R2
  EC50: 110 nM

## CC(C)C[C@H](NC(=O)[C@H](CCC(N)=O)NC(=O)[C@H](CCCCN)NC(=O)[C@H](CCCNC(=N)N)NC(=O)[C@H](CC(C)C)NC(=O)[C@H](CCCCN)NC(=O)[C@@H](NC(=O)[C@H](Cc1ccc(O)cc1)NC(=O)[C@H](CC(N)=O)NC(=O)[C@H](CCC(=O)O)NC(=O)[C@@H](NC(=O)[C@H](Cc1ccccc1)NC(=O)[C@@H](NC(=O)[C@H](C)NC(=O)[C@H](CC(=O)O)NC(=O)[C@H](CO)NC(=O)[C@@H](N)Cc1c[nH]cn1)C(C)C)[C@@H](C)O)[C@@H](C)O)C(=O)N[C@@H](C)C(=O)N[C@@H](C)C(=O)N[C@@H](CCCCN)C(=O)N[C@@H](CCCCN)C(=O)N[C@@H](Cc1ccc(O)cc1)C(=O)N[C@@H](CC(C)C)C(=O)N[C@@H](CC(N)=O)C(=O)N[C@@H](CC(=O)O)C(=O)N[C@@H](CC(C)C)C(=O)N[C@@H](CCCCN)C(=O)N[C@@H](CCCCN)C(=O)NCC(=O)NCC(=O)N[C@H](C(=O)N[C@@H](CO)C(=O)N[C@@H](Cc1c[nH]c2ccccc12)C(=O)N[C@@H](CS)C(=O)N[C@@H](CCC(=O)O)C(=O)N1CCC[C@H]1C(=O)NCC(=O)N[C@@H](Cc1c[nH]c2ccccc12)C(=O)N[C@@H](CS)C(=O)N[C@@H](CCCNC(=N)N)C(=O)O)[C@@H](C)O [Peptide R3P19] (H-HSDAVFTENYTKLRKQLAAKKYLNDLKKGGTSWCEPGWCR-OH; C-terminus assumed)
[2]
  Plasma Insulin (% of Basal): 285 % of Basal

## Ac-HSDAVFTEN(CH3O-Y)TKLRKQNIeAAKKYLNDLKK-NH2 (Ac-HSDAVFTEN[Tyr(Me)]TKLRKQ[Nle]AAKKYLNDLKK-NH2) [Peptide R3P4]
PACAP-R3 [3]
  PACAP-R3 selectivity: greater than 100 fold

## Ac-HSDAVFTENYTKLRKQLAAKKYLNDLKKGGT-NH2 [Peptide R3P1]
[2]
  Plasma Insulin (% of Basal): 480 % of Basal
Rat islets
  Islet Insulin Release (% of Basal): 250 % of Basal
[4]; plasma glucose area under the curve after IPGTT (1 g/kg glucose), % of vehicle, 1 nmol/kg peptide i.v.
  Plasma Glucose (% of Basal) i.v.: 73 % of Basal

## HSDAVFTDNYTRLRKQLAAKKYLNDIKK-NH2 [Peptide R3P13]
[2]
  Plasma Insulin (% of Basal): 465 % of Basal
Rat islets
  Islet Insulin Release (% of Basal): 170 % of Basal
[4]; 1 nmole/kg dose, subcutaneous route, FIG. 7 legend
  glucose disposal in the rat: enhance glucose disposal
[4]; 1 nmole/kg s.c., vehicle: 160 mg/dl above basal, Figure 7
  elevation of plasma glucose 30 minutes after IPGTT: significantly reduced
[4]; plasma glucose area under the curve after IPGTT (1 g/kg glucose), % of vehicle, 1 nmol/kg peptide s.c.
  Plasma Glucose (% of Basal) s.c.: 77 % of Basal

## HSDGIFTDSYSRYRKQLAAKKYLADVKK [Peptide R3P38]
PACAP-R3 [1]
  EC50: 2.3 nM
PACAP-R2
  EC50: 17 nM

## HSDAVFTDNYTRLRKQMAAKKYLNSIKNKQ [rR3P165]
[5]
  R3 EC50, nM (cAMP SPA): 0.5 nM

## HSDAVFTDNYTRLRKQMAAKKYLNSIKNRI-NH2 [PAC27]
[5]
  R3 EC50, nM (cAMP SPA): 1.1 nM
  R3 Selectivity: 1.4 ratio

## ESDGIFTDSYSRYRKQMAVKKYLAAVL [R3P173]
[5]
  R3 EC50, nM (cAMP SPA): 200 nM

## HSDAVFTDDYTRLRKEVAAKKYLESIKDKRY [R3P172]
[5]
  R3 EC50, nM (cAMP SPA): 2.6 nM
  R3 Selectivity: 29 ratio

## HSDAVFTDNYTRLRKQVAAKKYLQSIKNKRYSWCEPGWCR [rR3P171]
[5]
  R3 EC50, nM (cAMP SPA): 0.4 nM
  R3 Selectivity: 200 ratio

## HSDAVFTDNYTRLRKQMAAKKYLNSIKNKW [rR3P169]
[5]
  R3 EC50, nM (cAMP SPA): 0.2 nM

## HSDAVFTDNYTRLRKQMAAKKYLNSIKNKT [rR3P167]
[5]
  R3 EC50, nM (cAMP SPA): 1 nM

Reference: patent EP1192182B1, “PITUITARY ADENYLATE CYCLASE ACTIVATING PEPTIDE (PACAP) RECEPTOR 3 (R3) AGONISTS AND THEIR PHARMACOLOGICAL METHODS OF USE” (priority 1999, dated 2001)
